Measurements published in ChEMBL document CHEMBL4376876 (J Med Chem, 2020).

What follows are compounds tested on Mycobacterium tuberculosis (assay: Resistance factor, ratio of MIC for antimycobacterial activity against Mycobacterium tuberculosis H37Rv over expressing InhA to MIC for antimycobacterial activity against Mycobacterium tuberculosis H37Rv transfected with pMV261 empty vector).
Type: functional

Question: How did the Ratio turn out when `CC(C)[C@H]1OC(=O)[C@H](C)[C@H](O)[C@H](Cc2cccnc2)NC(=O)[C@@H](NC(=O)c2ncccc2O)[C@@H](C)OC1=O` was run?
Answer: 8

Question: For `CC[C@H]1OC(=O)[C@H](C)[C@H](O)[C@H](Cc2cccnc2)NC(=O)[C@@H](NC(=O)c2ncccc2O)[C@@H](C)OC1=O`, which Ratio is on record?
Answer: >4

Question: How did the Ratio turn out when `C[C@H]1OC(=O)[C@@H](Cc2ccccc2)OC(=O)[C@H](C)[C@H](O)[C@H](Cc2cccnc2)NC(=O)[C@H]1NC(=O)c1ncccc1O` was run?
Answer: >4

Question: How did the Ratio turn out when `CC[C@H](C)[C@H]1OC(=O)[C@H](C)[C@H](O)[C@H](Cc2cccnc2)NC(=O)[C@@H](NC(=O)c2ncccc2O)[C@@H](C)OC1=O` was run?
Answer: 1

Question: Which Ratio does the source give for `NNC(=O)c1ccncc1` [ISONIAZID] here?
Answer: 31
